From PubChem BioAssay AID540311 (Sanford-Burnham Center for Chemical Genomics, 2011)
Active and inactive are the calls of the source.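 The calls were made as follows: active = mean EC50 at or below 20 µM; inactive = the rest.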

The compounds below were run on CHO-XBP1 cells, IRE1-XBP1 luciferase reporter luminescence (assay: XBP1 luciferase reporter activation – CHO-XBP1 cells, luminescence, SAR follow-up (AID 540311)).
For `Cc1nc(Nc2ncccn2)nc2ccccc12`, the EC50 was > 80 µM (inactive). With `Cc1ccnc(Nc2nc(-c3ccccc3)cc(=O)[nH]2)n1` the EC50 was > 80 µM (inactive). With `COc1cc(-c2ccccc2)nc(Nc2nc(C)c3ccccc3n2)n1` the EC50 was > 80 µM (inactive). With `Cc1cc(-c2ccccc2)nc(Nc2nc(C)c3ccccc3n2)n1` the EC50 was > 80 µM (inactive). With `Cc1ccnc(Nc2ncccn2)n1` the EC50 was > 80 µM (inactive). For `Cc1nc(Nc2nccc(-c3ccccc3)n2)nc2ccccc12`, the EC50 was > 80 µM (inactive). With `Cc1cc(=O)[nH]c(Nc2nc(C)c3ccccc3n2)n1` the EC50 was > 80 µM (inactive). `Cc1nc(Nc2nc(-c3ccccc3)cc(=O)[nH]2)nc2ccccc12` showed an EC50 of 12.8 µM.
